Experiment [1] deals with Staph. aureus stationary phase bacteria. Briefly: Bactericidal activity against stationary-phase cultures (CFU counts). Format: cell-based, Staphylococcus aureus. The conditions noted are these: 5 μg/mL of test compound.
Experiment [2] relates to stationary phase Mycobacterium tuberculosis. Briefly: Bactericidal activity against M. tuberculosis stationary-phase cultures (Model 1). Format: cell-based. The conditions noted are these: 10 μg/mL of test compound.
Experiment [3] concerns Streptococcus agalactiae stationary phase bacteria. Nature of the experiment: Bactericidal activity against stationary-phase cultures (CFU counts). The settings on record: 10 μg/mL of test compound. It is filed as cell-based.
Experiment [4] has as its system methicillin-resistant Staph. aureus stationary phase bacteria. The experiment is described as above. It is filed as cell-based, Methicillin resistant S. aureus (MRSA). The conditions noted are these: MRSA stationary phase, 10 μg/mL of test compound.
Experiment [5] deals with stationary phase Candida albicans. Nature of the experiment: Activity against stationary-phase cultures of Candida albicans (CFU counts). It is filed as cell-based. The conditions noted are these: 10 μg/mL of test compound.
Experiment [6] concerns Streptococcus pyogenes stationary phase bacteria. Briefly: Bactericidal activity against stationary-phase cultures (CFU counts). Format: cell-based. The conditions noted are these: 20 μg/mL of test compound.
The subject of experiment [7] is Enterococcus stationary phase bacteria. The description is as above. Format: cell-based. The conditions noted are these: 5 μg/mL of test compound.
The subject of experiment [8] is Coagulase negative staphylococcus stationary phase bacteria. The description is as above. It is filed as cell-based, Coagulase negative staphylococcus (CNS). The settings on record: 5 μg/mL of test compound.
In experiment [9] the test system is E. coli K12 stationary phase bacteria. The experiment is described as above. It is filed as cell-based, Escherichia coli K12. The settings on record: 10 μg/mL of test compound.
Experiment [10] has as its system Streptococcus pneumoniae stationary phase bacteria. The experiment is described as above. Format: cell-based. The conditions noted are these: 10 μg/mL of test compound.
In experiment [11] the test system is Propionibacterium acnes stationary phase bacteria. The description is as above. Format: cell-based. The settings on record: 10 μg/mL of test compound.

The compound `Cc1cc(N2CCC(c3ccccc3)C2)c2cc(OCCc3ccccc3)ccc2n1.Cl` (centres unmarked) [Example 6, 2-Methyl-6-phenethyloxy-4-(3-phenylpyrrolidin-1-yl)quinoline hydrochloride] registered a log kill in [1] of 6.16.
With `Cc1cc(N2CCC(Cc3ccccc3)C2)c2cc(Oc3ccccc3)ccc2n1.Cl` (centres unmarked) [Example 8, 4-(3-Benzylpyrrolidin-1-yl)-2-methyl-6-phenoxyquinoline hydrochloride], the log kill in [2] stood at 5.76; in [3], 0.97; in experiment [4] it was 6.34; in experiment [5], 3.70.
Regarding `COc1ccc(C2CCN(c3cc(C)nc4ccc(Oc5ccccc5)cc34)C2)cc1.Cl` (centres unmarked) [Example 9, 4-[3-(4-Methoxyphenyl)pyrrolidin-1-yl]-2-methyl-6-phenoxyquinoline hydrochloride], in experiment [6], the log kill was 6.42.
For `Cc1cc(N2CCC(c3ccccc3)C2)c2cc(NC(=O)c3cc(C)[nH]n3)ccc2n1.Cl` (centres unmarked) [Example 22, 5-Methyl-1H-pyrazole-3-carboxylic acid [2-methyl-4-(3-phenylpyrrolidin-1-yl)-quinolin-6-yl]amide hydrochloride], the log kill in [7] is 3.22; in experiment [8] it was 5.99.
With `Cc1cc(N2CCC(c3ccccc3)C2)c2cc(Oc3ccccc3)ccc2n1.Cl` (centres unmarked) [Example 39, 2-Methyl-6-phenoxy-4-(3-phenylpyrrolidin-1-yl)quinoline hydrochloride], the log kill in experiment [9] was determined as 6.80; in [10] it was 7.32; in experiment [11] it was 6.34.

These data come from patent US8759348B2, “Use of 4-(pyrrolidin-1-yl)quinoline compounds to kill clinically latent microorganisms” (Helperby Therapeutics Limited, priority 2007, dated 2014).
